Data on 18 compounds can be found in patent US11046686B2, “Thiadiazole IRAK4 compounds” (Gilead Sciences, Inc., priority 2018, dated 2021).

One test concerns TNFα. As to the kind of experiment: IRAK4 Monocyte TNFα Cell Based Assay. Details: species or system human. An outline of the steps:
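Human monocytes (5,000/well) pretreated with compound 1 h at 37 °C (0.1% DMSO final), then stimulated with 50 pg/ml LPS for 4 h. Secreted TNFα measured by TR-FRET two-antibody detection after overnight incubation at room temperature; % control relative to unstimulated and LPS-stimulated wells.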

The target of a further test is IRAK4 enzyme (Homo sapiens (Human), UniProt Q9NWZ3). Kind of test: IRAK4 Biochemical Assay (TR-FRET, STK1 KinEASE). Summed up:
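IRAK4 (0.75 nM) preincubated 15 min with compound and […] STK1 peptide, then started with 500 μM ATP in HEPES pH 7.0 buffer with MgCl2, DTT, BSA, NP-40; 120 min at room temperature.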
Background: Time-resolved FRET reads energy transfer from a long-lived donor to a nearby acceptor.

The mark [1] stands for this setting: Homo sapiens, Monocyte, human monocytes, second part of Table 2, compounds 33-343, unit inferred, read-out: EC50 MONO TNF HTRF.
Where [2] appears, read: Homo sapiens, Monocyte, human monocytes, LPS stimulated, compounds 1-32, read-out: EC50 TNF.
Where [3] appears, read: compounds 1-32, read-out: IC50 HTRF.

What is called pEC50 is the EC50 on a negative log10 scale, so that one unit is a factor of ten. The pIC50 is the IC50 on a negative log10 scale, so that one unit is a factor of ten.

pEC50, pIC50: −log10 of the molar value. Like-named read-outs stand apart in the source and are kept apart here.

Sequence of IRAK4 enzyme (Q9NWZ3 whole entry): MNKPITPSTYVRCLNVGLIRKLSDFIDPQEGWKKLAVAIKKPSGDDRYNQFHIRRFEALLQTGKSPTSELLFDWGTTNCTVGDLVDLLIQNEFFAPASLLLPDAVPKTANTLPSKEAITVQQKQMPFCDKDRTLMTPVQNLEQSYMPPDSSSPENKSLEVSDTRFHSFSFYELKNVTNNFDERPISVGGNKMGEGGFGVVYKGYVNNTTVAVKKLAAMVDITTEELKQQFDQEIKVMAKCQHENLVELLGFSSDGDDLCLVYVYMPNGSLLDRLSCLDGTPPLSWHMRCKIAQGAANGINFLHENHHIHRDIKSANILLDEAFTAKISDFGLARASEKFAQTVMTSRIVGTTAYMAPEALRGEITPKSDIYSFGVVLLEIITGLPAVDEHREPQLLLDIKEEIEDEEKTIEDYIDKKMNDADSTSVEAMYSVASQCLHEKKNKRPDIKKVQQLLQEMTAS

On to `CC(=O)NC1CCC2(C1)CN(c1nnc(-c3cnc(-c4ccc5cc(C#N)cnn45)cc3NC(C)C)s1)C2` (stereo not drawn) [Example 170, N-(2-(5-(6-(3-cyanopyrrolo[1,2-b]pyridazin-7-yl)-4-(isopropylamino)pyridin-3-yl)-1,3,4-thiadiazol-2-yl)-2-azaspiro[3.4]octan-6-yl)acetamide], for which the pEC50 in the test on TNFα (setting [1]) was 7.80. The pIC50 against IRAK4 enzyme was 9.44.

In the case of `CC(C)Nc1cc(-c2ccc3cc(C#N)cnn23)ncc1-c1nnc(C(=O)N2CC[C@H](NC(=O)C3CC3)C2)s1` [Example 46, (S)-N-(1-(5-(6-(3-cyanopyrrolo[1,2-b]pyridazin-7-yl)-4-(isopropylamino)pyridin-3-yl)-1,3,4-thiadiazole-2-carbonyl)pyrrolidin-3-yl)cyclopropanecarboxamide], the pEC50 in the test on TNFα (setting [1]) is 7.78. The compound further showed a negative logarithm of the IC50 (pIC50) at IRAK4 enzyme of 9.17.

Turning to `COC(=O)NC[C@H]1C[C@H](Nc2cc(-c3ccc4cc(C#N)cnn34)ncc2-c2nnc([C@H]3CC[C@H](NC(C)=O)CC3)s2)C1` [Example 23, methyl (((1R,3r)-3-((5-(5-((1r,4R)-4-acetamidocyclohexyl)-1,3,4-thiadiazol-2-yl)-2-(3-cyanopyrrolo[1,2-b]pyridazin-7-yl)pyridin-4-yl)amino)cyclobutyl)methyl)carbamate], the pEC50 in the test on TNFα (setting [2]) is 8.22. Also, at IRAK4 enzyme (setting [3]), the negative-log IC50 (pIC50) is more than 9.00.

As to `CC(C)Nc1cc(-c2ccc3cc(C#N)cnn23)ncc1-c1nnc(C(=O)N2CC[C@H](NC(=O)OC(C)(C)C)C2)s1` [Example 223, tert-butyl (S)-(1-(5-(6-(3-cyanopyrrolo[1,2-b]pyridazin-7-yl)-4-(isopropylamino)pyridin-3-yl)-1,3,4-thiadiazole-2-carbonyl)pyrrolidin-3-yl)carbamate], the negative logarithm of the EC50 (pEC50) in the test with TNFα (setting [1]) was 5.87. The compound also showed a pIC50 on IRAK4 enzyme of 8.84.

As for `N#Cc1cnn2c(-c3cc(NC4CCOCC4)c(-c4nnc(C56CCC(N)(CC5)CC6)s4)cn3)ccc2c1` [Example 336, 7-(5-(5-(4-aminobicyclo[2.2.2]octan-1-yl)-1,3,4-thiadiazol-2-yl)-4-((tetrahydro-2H-pyran-4-yl)amino)pyridin-2-yl)pyrrolo[1,2-b]pyridazine-3-carbonitrile], the negative logarithm of the EC50 (pEC50) with TNFα (Homo sapiens, Monocyte, read-out: EC50 MONO TNF HTRF) was 7.96. This compound gave a pIC50 at IRAK4 enzyme of 9.15.

For `CC(C)(O)[C@@H]1C[C@H]1c1nnc(-c2cnc(-c3ccc4cc(C#N)cnn34)cc2NC2COC2)s1` (single isomer, unassigned; isomer 2) [136 Isomer 2], the negative logarithm of the EC50 (pEC50) in the test on TNFα (human monocytes, second part of Table 2, compounds 33-343, unit inferred, read-out: EC50 MONO TNF HTRF) is 8.40. Further, at IRAK4 enzyme (second part of Table 2, compounds 33-343, unit inferred, read-out: IC50 IRAK4-HTBS), the pIC50 was 9.28.

As for `CC(C)Nc1cc(-c2ccc3cc(C#N)cnn23)ncc1-c1nnc(C(=O)N2CC[C@@H](O)C2)s1` [Example 17, (R)-7-(5-(5-(3-hydroxypyrrolidine-1-carbonyl)-1,3,4-thiadiazol-2-yl)-4-(isopropylamino)pyridin-2-yl)pyrrolo[1,2-b]pyridazine-3-carbonitrile], the pEC50 in the test with TNFα (setting [2]) was 7.26. Besides, the negative-log IC50 (pIC50) at IRAK4 enzyme (setting [3]) was 9.00.

With `CC(=O)NC12CC(c3nnc(-c4cnc(-c5ccc6cc(C#N)cnn56)cc4NC(C)C)s3)(C1)C2` [Compound 246, N-(3-(5-(6-(3-cyanopyrrolo[1,2-b]pyridazin-7-yl)-4-(isopropylamino)pyridin-3-yl)-1,3,4-thiadiazol-2-yl)bicyclo[1.1.1]pentan-1-yl)acetamide], the pEC50 in the test with TNFα (setting [1]) was 7.36. At IRAK4 enzyme, this compound showed a negative-log IC50 (pIC50) of 8.86.

`CC(C)Nc1cc(-c2ccc3cc(C#N)cnn23)ncc1-c1nnc(N2CCNCC2)s1` [Example 130, 7-(4-(isopropylamino)-5-(5-(piperazin-1-yl)-1,3,4-thiadiazol-2-yl)pyridin-2-yl)pyrrolo[1,2-b]pyridazine-3-carbonitrile]: the pEC50 in the test on TNFα (setting [1]) was 7.73. Further, the pIC50 against IRAK4 enzyme is 9.19.

Take `CC(C)Nc1cc(-c2ccc3cc(C#N)cnn23)ncc1-c1nnc(N2CCC3(CC2)COC3)s1` [Example 4, 7-(5-(5-(2-oxa-7-azaspiro[3.5]nonan-7-yl)-1,3,4-thiadiazol-2-yl)-4-(isopropylamino)pyridin-2-yl)pyrrolo[1,2-b]pyridazine-3-carbonitrile]: the pEC50 in the test on TNFα (setting [2]) is 7.64. Also, the negative logarithm of the IC50 (pIC50) at IRAK4 enzyme (setting [3]) is 9.00.

Turning to `CC(=O)NC1CCN(c2nnc(-c3cnc(-c4ccc5cc(C#N)cnn45)cc3NC(C)C)s2)[C@@H](C)C1` (stereo partly drawn) [Compound 249, N-((2S)-1-(5-(6-(3-cyanopyrrolo[1,2-b]pyridazin-7-yl)-4-(isopropylamino)pyridin-3-yl)-1,3,4-thiadiazol-2-yl)-2-methylpiperidin-4-yl)acetamide], the negative logarithm of the EC50 (pEC50) in the test on TNFα (setting [1]) is 8.05. In addition, on IRAK4 enzyme, the negative logarithm of the IC50 (pIC50) is 9.04.

For the compound `CC(=O)N1CC2(C1)CN(c1nnc(-c3cnc(-c4ccc5cc(C#N)cnn45)cc3NC(C)C)s1)C2` [Example 68, 7-(5-(5-(6-acetyl-2,6-diazaspiro[3.3]heptan-2-yl)-1,3,4-thiadiazol-2-yl)-4-(isopropylamino)pyridin-2-yl)pyrrolo[1,2-b]pyridazine-3-carbonitrile], in the test on TNFα (setting [1]), the pEC50 is 7.42. This compound also showed a pIC50 on IRAK4 enzyme of 9.35.

As to `CC(=O)NC12CC(c3nnc(-c4cnc(-c5ccc6cc(C#N)cnn56)cc4NC4CCOCC4)s3)(C1)C2` [Compound 270, N-(3-(5-(6-(3-cyanopyrrolo[1,2-b]pyridazin-7-yl)-4-((tetrahydro-2H-pyran-4-yl)amino)pyridin-3-yl)-1,3,4-thiadiazol-2-yl)bicyclo[1.1.1]pentan-1-yl)acetamide], the pEC50 in the test with TNFα (setting [1]) was 7.97. This compound gave a pIC50 against IRAK4 enzyme of 9.19.

For `CC(C)Nc1cc(-c2ccc3cc(C#N)cnn23)ncc1-c1nnc(NCC(C)(C)O)s1` [Example 37, 7-(5-(5-((2-hydroxy-2-methylpropyl)amino)-1,3,4-thiadiazol-2-yl)-4-(isopropylamino)pyridin-2-yl)pyrrolo[1,2-b]pyridazine-3-carbonitrile], the pEC50 in the test with TNFα (setting [1]) was 5.00. The pIC50 on IRAK4 enzyme was 6.00.

Regarding `Cc1nnc(-c2cnc(-c3ccc4cc(C#N)cnn34)cc2NC(C)C)s1` [Example 25, 7-(4-(isopropylamino)-5-(5-methyl-1,3,4-thiadiazol-2-yl)pyridin-2-yl)pyrrolo[1,2-b]pyridazine-3-carbonitrile], in the test with TNFα (setting [2]), the pEC50 was 5.84. In addition, on IRAK4 enzyme (setting [3]), the pIC50 was more than 9.00.

As for `CC(=O)NC1CC=C(c2nnc(-c3cnc(-c4ccc5cc(C#N)cnn45)cc3NC(C)C)s2)CC1` (stereo not drawn) [Example 313, N-(4-(5-(6-(3-cyanopyrrolo[1,2-b]pyridazin-7-yl)-4-(isopropylamino)pyridin-3-yl)-1,3,4-thiadiazol-2-yl)cyclohex-3-en-1-yl)acetamide], the pEC50 with TNFα (setting [1]) was 7.31. Besides, on IRAK4 enzyme, the pIC50 was 8.83.

For the compound `CC(=O)N[C@H]1C[C@@H]2C[C@H]1CN2c1nnc(-c2cnc(-c3ccc4cc(C#N)cnn34)cc2NC(C)C)s1` [Example 74, N-((1S,4S,5S)-2-(5-(6-(3-cyanopyrrolo[1,2-b]pyridazin-7-yl)-4-(isopropylamino)pyridin-3-yl)-1,3,4-thiadiazol-2-yl)-2-azabicyclo[2.2.1]heptan-5-yl)acetamide], the pEC50 in the test with TNFα (setting [1]) is 7.96. On IRAK4 enzyme, the negative logarithm of the IC50 (pIC50) was 9.27.

For the compound `CC(C)Nc1cc(-c2ccc3cc(C#N)cnn23)ncc1-c1nnc(N2CC[C@H](O)C(F)(F)C2)s1` [Example 161, (S)-7-(5-(5-(3,3-difluoro-4-hydroxypiperidin-1-yl)-1,3,4-thiadiazol-2-yl)-4-(isopropylamino)pyridin-2-yl)pyrrolo[1,2-b]pyridazine-3-carbonitrile], the pEC50 with TNFα (setting [1]) is 7.46. The pIC50 against IRAK4 enzyme was 8.83.
